Experimental data: patent US7297700B2, “Bicycloheteroaryl compounds as P2X7 modulators and uses thereof” (Renovis, Inc., priority 2005, dated 2007)

tested on: IL-1β release from THP-1 cells; test: IL-1β Release Assay (Alternate Method), THP-1 cells; assay type: cell-based, human; details: Homo sapiens, THP-1, read-out: IL-1β % inhibition
Summary of the method: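 THP-1 cells differentiated 16 h with 100 ng/mL LPS plus 100 ng/mL IFN-γ, reprimed 2 h with 100 ng/mL LPS, pretreated 30 min with compound, then challenged 45 min with 250 uM BzATP (final). Supernatant IL-1β quantified by ELISA; percent inhibition from background-adjusted levels versus untreated cells.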

Row | SMILES | inhibition at 0.3 µM [%]
1 | O=C(CC12CC3CC(CC(C3)C1)C2)Nc1ncnc2c1CCN(S(=O)(=O)c1ccccc1)C2 [Compound 143] | 0 to 25

same assay, conditions: Homo sapiens; at 0.3 μM; THP-1 cells; read-out: IL-1β % inhibition

Row | SMILES | inhibition at 0.3 µM [%]
2 | O=C(CC12CC3CC(CC(C3)C1)C2)Nc1ncnc2c1CCNC2 [Compound 6, 2-Adamantan-1-yl-N-(5,6,7,8-tetrahydro-pyrido[3,4-d]pyrimidin-4-yl)-acetamide] | 0 to 25

same assay, conditions: at 0.3 μM; THP-1 cells

Row | SMILES | IL-1β % inhibition
3 | O=C(NCC1CCCCC1)c1ncnc2c1CCN(Cc1ccccn1)C2 [Compound 52] | + (compound exhibited 0-25% inhibition at 0.3 μM)
4 | N#Cc1cc(CN2CCc3c(ncnc3NC(=O)CC34CC5CC(CC(C5)C3)C4)C2)ccc1F [Compound 84] | + (compound exhibited 0-25% inhibition at 0.3 μM)
5 | Cc1noc(C)c1C(=O)N1CCc2c(ncnc2NC(=O)CC23CC4CC(CC(C4)C2)C3)C1 [Compound 297] | + (compound exhibited 0-25% inhibition at 0.3 μM)
6 | O=C(CC12CC3CC(CC(C3)C1)C2)Nc1ncnc2c1CCN(Cc1ccc(OC(F)F)cc1)C2 [Compound 78] | + (compound exhibited 0-25% inhibition at 0.3 μM)
7 | CC(=O)Nc1ccc(CN2CCc3c(ncnc3NC(=O)CC34CC5CC(CC(C5)C3)C4)C2)cc1 [Compound 62] | +++ (compound exhibited 50-75% inhibition at 0.3 μM)
8 | N#Cc1cccc(C(=O)N2CCc3c(ncnc3NC(=O)CC34CC5CC(CC(C5)C3)C4)C2)c1 [Compound 242] | +++ (compound exhibited 50-75% inhibition at 0.3 μM)
9 | O=C(O)COc1ccc(CN2CCc3c(ncnc3NC(=O)CC34CC5CC(CC(C5)C3)C4)C2)cc1 [Compound 140] | + (compound exhibited 0-25% inhibition at 0.3 μM)
10 | O=C(CC12CC3CC(CC(C3)C1)C2)Nc1ncnc2c1CCN(Cc1ccc(Cl)s1)C2 [Compound 83] | ++++ (compound exhibited 75% or greater inhibition at 0.3 μM)
11 | CC(C)(C(=O)Nc1ncnc2c1CCN(Cc1ccc(F)cc1)C2)C12CC3CC(CC(C3)C1)C2 [Compound 352] | + (compound exhibited 0-25% inhibition at 0.3 μM)
12 | COCC(=O)N1CCc2c(ncnc2NC(=O)CC23CC4CC(CC(C4)C2)C3)C1 [Compound 240] | + (compound exhibited 0-25% inhibition at 0.3 μM)
13 | O=C(CC12CC3CC(CC(C3)C1)C2)Nc1ncnc2c1CCN(Cc1ccc(F)c(C(F)(F)F)c1)C2 [Compound 106] | + (compound exhibited 0-25% inhibition at 0.3 μM)
14 | CC12CC3CC(C)(C1)CC(CC(=O)Nc1ncnc4c1CCN(C(=O)c1c(F)cccc1F)C4)(C3)C2 [Compound 387] | + (compound exhibited 0-25% inhibition at 0.3 μM)
15 | CC12CC3(C)CC(C)(C1)CC(CC(=O)Nc1ncnc4c1CCN(Cc1ccccc1)C4)(C2)C3 [Compound 344] | + (compound exhibited 0-25% inhibition at 0.3 μM)
16 | Cc1cc(C(=O)N2CCc3c(ncnc3NC(=O)CC34CC5CC(CC(C5)C3)C4)C2)n(C(C)(C)C)n1 [Compound 300] | + (compound exhibited 0-25% inhibition at 0.3 μM)
17 | COc1ccc(S(=O)(=O)N2CCc3c(ncnc3NC(=O)CC34CC5CC(CC(C5)C3)C4)C2)cc1 [Compound 149] | +++ (compound exhibited 50-75% inhibition at 0.3 μM)
18 | CC(C)(C)c1ccc(C(=O)N2CCc3c(ncnc3NC(=O)CC34CC5CC(CC(C5)C3)C4)C2)cc1 [Compound 301] | ++++ (compound exhibited 75% or greater inhibition at 0.3 μM)
19 | O=C(CC12CC3CC(CC(C3)C1)C2)Nc1ncnc2c1CCN(C(=O)CC1CCCC1)C2 [Compound 263] | ++++ (compound exhibited 75% or greater inhibition at 0.3 μM)

Row | SMILES | IL-1β % inhibition
20 | O=C(CC12CC3CC(CC(C3)C1)C2)Nc1ncnc2c1CCN(C(=O)c1cc(F)ccc1F)C2 [Compound 279] | ++++ (compound exhibited 75% or greater inhibition at 0.3 μM)
21 | O=C(CC12CC3CC(CC(C3)C1)C2)Nc1ncnc2c1CCN(CCCc1ccccc1)C2 [Compound 63] | + (compound exhibited 0-25% inhibition at 0.3 μM)
22 | COc1cc(OC)cc(C(=O)N2CCc3c(ncnc3NC(=O)CC34CC5CC(CC(C5)C3)C4)C2)c1 [Compound 246] | ++ (compound exhibited 25-50% inhibition at 0.3 μM)
23 | COc1cccc(CN2CCc3c(ncnc3NC(=O)CC34CC5CC(CC(C5)C3)C4)C2)c1 [Compound 35] | +++ (compound exhibited 50-75% inhibition at 0.3 μM)
24 | O=C(CC12CC3CC(CC(C3)C1)C2)Nc1ncnc2c1CCN(S(=O)(=O)c1ccc(Oc3ccc(C(F)(F)F)cc3)cc1)C2 [Compound 177] | ++ (compound exhibited 25-50% inhibition at 0.3 μM)
25 | CN1CCOc2cc(S(=O)(=O)N3CCc4c(ncnc4NC(=O)CC45CC6CC(CC(C6)C4)C5)C3)ccc21 [Compound 157] | + (compound exhibited 0-25% inhibition at 0.3 μM)
26 | O=C(CC12CC3CC(CC(C3)C1)C2)Nc1ncnc2c1CCN(S(=O)(=O)c1ccccc1C(F)(F)F)C2 [Compound 195] | + (compound exhibited 0-25% inhibition at 0.3 μM)
27 | CC12CC3CC(C)(C1)CC(CC(=O)Nc1ncnc4c1CCN(S(=O)(=O)Cc1ccc(Cl)c(Cl)c1)C4)(C3)C2 [Compound 378] | +++ (compound exhibited 50-75% inhibition at 0.3 μM)
28 | Cc1nn(C)c(Cl)c1S(=O)(=O)N1CCc2c(ncnc2NC(=O)CC23CC4CC(CC(C4)C2)C3)C1 [Compound 158] | + (compound exhibited 0-25% inhibition at 0.3 μM)
29 | O=C(CC12CC3CC(CC(C3)C1)C2)Nc1ncnc2c1CCN(S(=O)(=O)Cc1ccc(C(F)(F)F)cc1)C2 [Compound 183] | ++ (compound exhibited 25-50% inhibition at 0.3 μM)
30 | CC(C)(C(=O)Nc1ncnc2c1CCN(C(=O)c1cccc(C(F)(F)F)c1)C2)C12CC3CC(CC(C3)C1)C2 [Compound 359] | + (compound exhibited 0-25% inhibition at 0.3 μM)
31 | O=C(NCC1CCCCC1)c1ncnc2c1CCN(Cc1cccnc1)C2 [Compound 48] | + (compound exhibited 0-25% inhibition at 0.3 μM)
32 | O=C(CC12CC3CC(CC(C3)C1)C2)Nc1ncnc2c1CCN(S(=O)(=O)c1cc(C(F)(F)F)ccc1Cl)C2 [Compound 181] | ++ (compound exhibited 25-50% inhibition at 0.3 μM)
33 | O=C(CC12CC3CC(CC(C3)C1)C2)Nc1ncnc2c1CCN(Cc1cccnc1)C2 [Compound 16] | + (compound exhibited 0-25% inhibition at 0.3 μM)
34 | Cc1ccccc1S(=O)(=O)N1CCc2c(ncnc2NC(=O)CC23CC4CC(CC(C4)C2)C3)C1 [Compound 199] | ++++ (compound exhibited 75% or greater inhibition at 0.3 μM)
35 | N#Cc1ccc(CN2CCc3c(ncnc3NC(=O)CC34CC5CC(CC(C5)C3)C4)C2)cc1 [Compound 42] | + (compound exhibited 0-25% inhibition at 0.3 μM)

same assay, conditions: at 0.3 μM; THP-1 cells, BzATP-stimulated

Row | SMILES | IL-1β % inhibition
36 | O=C(Nc1ncnc2c1CCN(Cc1ccc(C(F)(F)F)cc1F)C2)C12CC3CC(CC(C3)C1)C2 [Compound 612] | ++++ (compound exhibited 75% or greater inhibition at 0.3 μM)
37 | O=C(c1cc(Cl)cc(Cl)c1)N1CCc2c(ncnc2NC(=O)C23CC4CC(CC(C4)C2)C3)C1 [Compound 479] | + (compound exhibited 0-25% inhibition at 0.3 μM)
38 | O=C(Nc1ncnc2c1CCN(S(=O)(=O)c1ccc(OC(F)F)cc1)C2)C12CC3CC(CC(C3)C1)C2 [Compound 523] | + (compound exhibited 0-25% inhibition at 0.3 μM)
39 | Cc1ccc(CN2CCc3c(ncnc3NC(=O)C34CC5CC(CC(C5)C3)C4)C2)cc1 [Compound 602] | ++ (compound exhibited 25-50% inhibition at 0.3 μM)
40 | O=C(Nc1ncnc2c1CCN(S(=O)(=O)Cc1ccc(Cl)c(Cl)c1)C2)C12CC3CC(CC(C3)C1)C2 [Compound 518] | ++++ (compound exhibited 75% or greater inhibition at 0.3 μM)
41 | CC(CCN1CCc2c(ncnc2NC(=O)C23CC4CC(CC(C4)C2)C3)C1)CC(C)(C)C (stereo not shown) [Compound 552] | ++++ (compound exhibited 75% or greater inhibition at 0.3 μM)
42 | COc1cccc(C(=O)N2CCc3c(ncnc3NC(=O)C34CC5CC(CC(C5)C3)C4)C2)c1 [Compound 422] | ++ (compound exhibited 25-50% inhibition at 0.3 μM)
43 | O=C(Nc1ncnc2c1CCN(S(=O)(=O)c1ccccc1OC(F)(F)F)C2)C12CC3CC(CC(C3)C1)C2 [Compound 532] | + (compound exhibited 0-25% inhibition at 0.3 μM)
44 | O=C(COc1ccc(Cl)cc1)N1CCc2c(ncnc2NC(=O)C23CC4CC(CC(C4)C2)C3)C1 [Compound 436] | ++ (compound exhibited 25-50% inhibition at 0.3 μM)
45 | COc1ccc(C(=O)N2CCc3c(ncnc3NC(=O)C34CC5CC(CC(C5)C3)C4)C2)cc1OC [Compound 476] | ++ (compound exhibited 25-50% inhibition at 0.3 μM)
46 | O=C(c1c(F)cccc1Cl)N1CCc2c(ncnc2NC(=O)C23CC4CC(CC(C4)C2)C3)C1 [Compound 444] | + (compound exhibited 0-25% inhibition at 0.3 μM)
47 | O=C(Nc1ncnc2c1CCN(S(=O)(=O)c1ccc3oc(=O)ccc3c1)C2)C12CC3CC(CC(C3)C1)C2 [Compound 505] | + (compound exhibited 0-25% inhibition at 0.3 μM)
48 | O=C(Nc1ncnc2c1CCN(Cc1ccc3c(c1)OCCO3)C2)C12CC3CC(CC(C3)C1)C2 [Compound 589] | +++ (compound exhibited 50-75% inhibition at 0.3 μM)
49 | COc1ccc(F)c(CN2CCc3c(ncnc3NC(=O)C34CC5CC(CC(C5)C3)C4)C2)c1 [Compound 628] | + (compound exhibited 0-25% inhibition at 0.3 μM)
50 | O=C(c1ccc2ccccc2n1)N1CCc2c(ncnc2NC(=O)C23CC4CC(CC(C4)C2)C3)C1 [Compound 471] | ++ (compound exhibited 25-50% inhibition at 0.3 μM)
51 | O=C(Nc1ncnc2c1CCN(Cc1ccc3ccccc3c1)C2)C12CC3CC(CC(C3)C1)C2 [Compound 565] | ++++ (compound exhibited 75% or greater inhibition at 0.3 μM)
52 | O=C(Nc1ncnc2c1CCN(Cc1ccc(C(F)(F)F)cc1)C2)C12CC3CC(CC(C3)C1)C2 [Compound 604] | ++++ (compound exhibited 75% or greater inhibition at 0.3 μM)
